Reference: patent publication EP0818453B1, “Benzothiophene compounds and methods of use” (ELI LILLY AND COMPANY, priority 1996, dated 1998)
Marks after values point to notes of the source that are not given here.

Test system: ovariectomized rats
Assay: Ovariectomized rat model of postmenopausal hyperlipidemia (serum cholesterol, uterine weight, uterine eosinophil peroxidase)
Assay type: in vivo
Conditions: for Serum Cholest. % Dec.: decrease versus ovariectomized controls; for Uterine Eosinophil (Vmax): eosinophil peroxidase, Vmaximum; for Uterine Weight % Inc: increase versus ovariectomized controls
Procedure: Experimental models of postmenopausal hyperlipidemia are known in the art. Germane to this invention is the ovariectomized rat model which is detailed in U.S. 5,464,845.
Data presented in Table 1 show comparative results among ovariectomized rats, rats treated with 17-a-ethynyl estradiol(EE2), and rats treated with certain compounds of this invention. […] This uterine response to estrogen is well recognized in the art.
As expressed in the data below, estrogenicity also was assessed by evaluating the response of eosinophil infiltration into the uterus.
The data presented in Table 1 reflect the response per treatment group.

Uterine Eosinophil (Vmax) (0.001 mg/kg PO) | Uterine Weight % Inc (0.001 mg/kg PO) | Uterine Eosinophil (Vmax) (0.01 mg/kg PO) | Uterine Weight % Inc (0.01 mg/kg PO) | Uterine Eosinophil (Vmax) (0.1 mg/kg PO) | Uterine Weight % Inc (0.1 mg/kg PO) | Compound | Serum Cholest. % Dec. (0.001 mg/kg PO) | Serum Cholest. % Dec. (0.01 mg/kg PO) | Serum Cholest. % Dec. (0.1 mg/kg PO) | Serum Cholest. % Dec. (1.0 mg/kg PO) | Serum Cholest. % Dec. (10.0 mg/kg PO) | uterine weight (0.1 mg/kg/day orally, versus ovariectomized animals, result in words) | serum cholesterol (orally administered at 0.1 mg/kg/day, result in words) | eosinophil infiltration into the uterus (stromal layer of ovariectomized rat uteri, result in words)
– | – | – | – | – | – | C[C@]12CC[C@@H]3c4ccc(O)cc4CC[C@H]3[C@@H]1CC[C@@H]2O [17-b-Estradiol] | 67.6* % | 57.5* % | 58.7* % | – | – | – | – | –
– | – | – | – | – | – | Cl.O=C(c1ccc(-c2ccc(OCCN3CCCCC3)cc2)cc1)c1c(-c2ccc(O)cc2)sc2cc(O)ccc12 [Compound 5, [2-(4-Hydroxyphenyl)-6-hydroxybenzo[b]thien-3-yl] [4'-[2-(1-piperidinyl)ethoxy]biphenyl-4-yl]methanone hydrochloride] | – | 15.9* % | 66.7* % | 87.3* % | – | – | – | –
– | – | – | – | – | – | O=C(c1ccc2cc(OCCN3CCCCC3)ccc2c1)c1c(-c2ccc(O)cc2)sc2cc(O)ccc12 [Compound 10, [2-(4-Hydroxyphenyl)-6-hydroxybenzo[b]thien-3-yl][6-[2-(1-piperidinyl)ethoxy]naphth-2-yl]methanone] | – | – | 39.4* % | 59.3* % | 69.1* % | – | – | –
20* | 35.8* % | 25.6* | 61.0* % | 276.6* | 129.6* % | C#C[C@]1(O)CC[C@H]2[C@@H]3CCc4cc(O)ccc4[C@H]3CC[C@@]21C [EE2, 17-a-ethynyl estradiol] | -1.9% | 12% | 77.7* % | – | – | substantially greater than the uterine weight of the ovariectomized animals | caused a decrease in serum cholesterol | substantial and expected increase in eosinophil infiltration
